Patent US20250295658A1, “ANTIPARASITIC AGENTS AND METHODS” (Whitehead Institute for Biomedical Research, priority 2022, published 2025)

What was measured:
Toxoplasma gondii [1] = test: Plaque assays with DAHP and BH4; type: cell-based; details: FIG. 1F
Description: Plaque Assays with DAHP and BH4
RHAku80 were maintained for at least two passages in DMEM and HPLM prior to beginning the plaque assay. Confluent human fibroblasts were maintained in 6-well plates in either DMEM or HPLM for at least 24 h prior to the start of the assay. To begin the experiment, parasites maintained in DMEM and HPLM were syringe released and filtered through a […]. Parasites were then counted and diluted such that each well received 500 parasites. Wells were then treated with the indicated concentrations of DAHP or PBS vehicle. For the BH4 rescue experiments, wells received 50 μM BH4 or the equivalent volume of DMSO vehicle. Plaques were allowed to grow for 6 days prior to fixation. For fixation, wells were first washed with PBS, then fixed for 10 min at room temperature with 100% ethanol. Wells were then stained for 10 min with crystal violet (12.5 g crystal violet, 125 ml 100% ethanol, 500 ml 1% ammonium oxalate). Wells were then washed three times with water and allowed to dry overnight.

Toxoplasma gondii [2] = test: Pyrimethamine/DAHP drug synergy lytic assays; type: cell-based; details: pyrimethamine in combination with 2.5 mM DAHP; FIGS. 1G-H
Description: Pyrimethamine/DAHP Drug Synergy Lytic Assays
96 well plates were utilized to generate 8-point dosage curves of parasites grown in various concentrations of pyrimethamine with and without 2.5 mM DAHP. At the start of the assay, prior to parasite harvest, 96 well plates containing confluent fibroblasts were set up with 1.33× the desired final drug concentrations in 150 μl of volume. This ensured that the addition of 50 μl of parasites would result in the desired 1× drug concentration of both pyrimethamine and DAHP. Wells designated as containing less than the maximum dosage of either drug (10 μg/ml pyrimethamine and 2.5 mM DAHP) received the equivalent volume of vehicle (ethanol for pyrimethamine, PBS for DAHP). Parasites were then force-lysed, filtered, and resuspended to a concentration of 5e5 parasites/ml. 50 μl of parasites were then added to each well, resulting in an infection of 2.5e4 parasites per well. Plates were then spun at 290 g for 5 min. Plates were then incubated for 3 days to allow for parasite plaquing. Plates were then washed with PBS followed by staining with crystal violet as conducted for plaque assays. Well staining was then quantified by plate reader at the 570 nm wavelength. […] Drug curves were then generated and IC50 values were calculated from biological triplicate experiments in GraphPad Prism 9.

NF54 P. falciparum = test: SYBR Green I-based dose-response assay in Plasmodium falciparum; type: cell-based; details: atovaquone with 1 mM DAHP, FIGS. 2C-D
Description: The NF54 P. falciparum line was cultured and synchronized as described previously.^28,29 Cultures were kept at 37° C. in RPMI-1640 medium supplemented with 25 mM HEPES, 100 μM hypoxanthine, 0.5% Albumax II, 24 mM sodium bicarbonate, 25 μg/mL gentamicin (Life Technologies, Carlsbad, CA 11021-045) and gassed with 5% CO2, 1% O2, and 94% N2 mixture. Dose-Response Assay in Plasmodium falciparum A SYBR Green I-based assay was used to measure in vitro P. falciparum drug susceptibility.^30,31 Ring-stage NF54 parasites were seeded at 1% hematocrit and 1% starting parasitemia in 384-well black clear-bottom plates containing test compounds (stocks of 10 mM pyrimethamine, 0.1 mM atovaquone, and 10 mM DHA in DMSO) plated in triplicate in 12-point serial dilutions for 72 h. […] Lysis buffer (0.16% w/v saponin, 1.6% Triton X-100, 5 mM EDTA, and 20 mM Tris-HCl, pH 7.4) with a 1:1000 dilution of SYBR Green I fluorescent dye (Invitrogen) was added for at least 12 h, and fluorescence readings were taken (excitation at 494 nm, emission at 530 nm) using a SpectraMax M5 (Molecular Devices, Sunnyvale, CA) plate reader. IC50 values were calculated using a nonlinear regression curve fit in Graphpad Prism 9 in biological triplicate.

[3] = tested on: C57BL/6J mouse embryonic fibroblasts; test: Proliferation of mouse embryonic fibroblasts in DAHP treatment; type: cell-based; details: 5 mM DAHP, 48 hours; FIG. 2E
Description: Proliferation of Mouse Embryonic Fibroblasts in DAHP Treatment Twenty-thousand immortalized C57BL/6J mouse embryonic fibroblasts were plated in a well of a 6-well plate and treated with 5 mM DAHP or PBS vehicle. The cells were allowed to grow for 48 hours, then trypsinized and counted. Population doublings were calculated as follows: [formula] [formula]

[4] = cited from earlier work
[5] = tested on: DD-BFD2, CST10-fLuc, pSAG1-nLuc reporter strain; test: Firefly and nano-luciferase assays of the DD-BFD2, CST10-fLuc, pSAG1-nLuc reporter strain; type: cell-based, Toxoplasma; details: 3 μM shield-1
Source text: This strain is able to recapitulate the biology of both the acute tachyzoite stage as well as the chronic bradyzoite stage. Differentiation from the tachyzoite to bradyzoite stage is mediated through the expression of Bradyzoite Formation Deficient 2 (BFD2) tagged with a degradation domain. Under standard conditions, the degradation domain ensures BFD2 is degraded from parasites, maintaining them in the tachyzoite stage. Upon the addition of the small-molecule shield-1, BFD2 is stabilized and causes differentiation of parasites to the bradyzoite stage.^34 The engineered parasite strain allows the use of a dual-luciferase system to report on differentiation status and general parasite viability. Expression of firefly luciferase is driven by fusion via t2a peptide to the bradyzoite marker CST10, whereas expression of nano-luciferase is driven by the tachyzoite promoter SAG1. Addition of shield-1 is able to simultaneously increase the CST10 bradyzoite marker while decreasing the SAGI tachyzoite marker (FIGS. 2G-H). […] This enables examination of the chronic parasite state with minimal interference on the endogenous circuity. Chemical screens of this engineered strain can therefore identify compounds that bias parasite state either to the tachyzoite or bradyzoite stage, as well as compounds capable of killing both stages simultaneously. […]

Nc1cc(O)nc(N)n1 [DAHP, 2,4-diamino-6-hydroxypyrimidine]
effect on parasite viability (plaque assay) (Toxoplasma gondii [1]; 2.5 mM DAHP): no apparent effect | parasite lytic cycle (plaque assay) (Toxoplasma gondii [1]; 5 mM DAHP): able to block the parasite lytic cycle | antiparasitic effect of DAHP with exogenous BH4 (Toxoplasma gondii [1]; exogenous BH4 (50 μM)): rescued | reduction in the pyrimethamine IC50 value (Toxoplasma gondii [2]): 70% | potentiating effect in combination with atovaquone (NF54 P. falciparum): no potentiating effect | growth of a proliferative mouse fibroblast cell line (population doublings) [3]: no effect | solubility [4]: poor

CC[C@H](C(=O)N1CCCC[C@H]1C(=O)O[C@H](CCc1ccc(OC)c(OC)c1)c1cccc(OCCN2CCOCC2)c1)c1cc(OC)c(OC)c(OC)c1 [shield-1]
CST10 bradyzoite marker (firefly luciferase reporter) ([5]; FIG. 2G): increase | SAG1 tachyzoite marker (nano-luciferase reporter) ([5]; FIG. 2H): decreasing
